For O=C(c1ccccc1Cl)N1CCCCC1, the logP was 2.8. CCNC(=O)Cc1ccccc1 gave a logP of 1. Compound COc1ccc(C(=O)N2CCCCC2)cc1 has a logP of 2.4. With CCNC(=O)c1ccccc1OCC the logP was 2.4. With CN(C)C(=O)CC1CCCCC1 the logP was 2.19. In the case of Cc1ccc(C(=O)N2CCCCC2)cc1, the logP is reported as 2.8. Work on CCN(CC)C(=O)CC1CCCCC1 yielded a logP of 3.12. Work on O=C(CC1CCCCC1)N1CCCCC1 yielded a logP of 3.2. With O=C(Cc1ccccc1)N1CCCCC1 the logP was 2.44. In the case of CN(C)C(=O)c1ccccc1Cl, the logP is reported as 1.54. CCOc1ccccc1C(=O)N1CCCCC1 gave a logP of 2.6. CCNC(=O)CC1CCCCC1 gave a logP of 2.28. With CCN(CC)C(=O)c1ccccc1Cl the logP was 2.1. Work on CC(C)N(C(=O)Cc1ccccc1)C(C)C yielded a logP of 3.1. With CC(C)N(C(=O)c1ccccc1Cl)C(C)C the logP was 3. Work on CCN(CC)C(=O)c1ccc(C)cc1 yielded a logP of 2.38. Compound Cc1ccc(C(=O)N(C)C)cc1 has a logP of 1.72. For CCN(CC)C(=O)c1cccc(C)c1, the logP was 2.34. With Cc1cccc(C(=O)N(C)C)c1 the logP was 1.6. With Cc1cccc(C(=O)N2CCCCC2)c1 the logP was 2.6. For CCOc1ccccc1C(=O)N(C(C)C)C(C)C, the logP was 3. COc1ccc(C(=O)N(C(C)C)C(C)C)cc1 gave a logP of 2.8. With CCNC(=O)c1cccc(C)c1 the logP was 1.32. For Cc1ccc(C(=O)N(C(C)C)C(C)C)cc1, the logP was 2.5. With CCN(CC)C(=O)Cc1ccccc1 the logP was 2.4. Compound CCN(CC)C(=O)c1ccc(OC)cc1 has a logP of 2.5. In the case of CCN(CC)C(=O)c1ccccc1, the logP is reported as 1.8. Compound CC(C)N(C(=O)c1ccccc1)C(C)C has a logP of 2.5. With CCNC(=O)c1ccc(OC)cc1 the logP was 1.14. CN(C)C(=O)c1ccccc1 showed a logP of 1.2. In the case of Cc1cccc(C(=O)N(C(C)C)C(C)C)c1, the logP is reported as 3. With CCNC(=O)c1ccc(C)cc1 the logP was 1.38. Compound CCNC(=O)c1ccccc1Cl has a logP of 0.95. With O=C(c1ccccc1)N1CCCCC1 the logP was 2.2. Work on CN(C)C(=O)Cc1ccccc1 yielded a logP of 1.48. Work on CCOc1ccccc1C(=O)N(CC)CC yielded a logP of 2.5.

From the SangsterLogP compilation
